The values below come from PubChem BioAssay (NCI).

Some test systems named below: HOP-62 NSCLC; MDA-MB-435; NCI/ADR-RES ovarian; 786-0 renal; DU-145 prostate; K-562 leukemia; RXF 393 renal; OVCAR-3 ovarian; T-47D breast; SK-MEL-2 melanoma.
What all share (experiment): NCI tumour cell line growth inhibition, 48 h

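Growth conditions: 96-well plates. Treatment: test compound, 48 hours, 5 concentrations. Analysis: linear interpolation between bracketing concentrations; unreached endpoints set to highest concentration. TGI marks complete inhibition of growth.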

Take `C#CCOCC12C=CC(O1)C1C(=O)OCC12` (centres undefined): the TGI with HOP-62 NSCLC, in the assay with MDA-MB-435, with NCI/ADR-RES ovarian, in the assay on 786-0 renal, in the assay on DU-145 prostate and in the assay with K-562 leukemia was above 100 µM each time. Besides, the TGI with RXF 393 renal, with OVCAR-3 ovarian and in the assay with T-47D breast was above 100 µM in each case.
Take `CC1=NN(C(=O)CSc2nc3ccc(I)cc3c(=O)n2Cc2ccccc2)C(=O)C1`: the TGI with SK-MEL-2 melanoma is 41 µM; in the assay on HOP-62 NSCLC, above 100 µM; in the assay on MDA-MB-435, 75.2 µM; with NCI/ADR-RES ovarian, 58.3 µM; with 786-0 renal, above 100 µM; with DU-145 prostate, above 100 µM. Moreover, the TGI was 74.9 µM with K-562 leukemia, 66.2 µM with RXF 393 renal, 54.9 µM with OVCAR-3 ovarian and 60.3 µM in the assay with T-47D breast.
Take `CCN(c1cccc(NC(=S)Nc2ccccc2N(CC)c2cc(-c3ccccc3)no2)c1)c1cc(-c2ccccc2)no1`: the TGI with SK-MEL-2 melanoma, in the assay with HOP-62 NSCLC, with MDA-MB-435, with NCI/ADR-RES ovarian, in the assay on 786-0 renal and in the assay with DU-145 prostate was above 100 µM each time. In addition, the TGI in the assay with K-562 leukemia, with RXF 393 renal, with OVCAR-3 ovarian and in the assay on T-47D breast was above 100 µM each time.
Turning to `COc1ccc2c(c1)CCN1CCc3cc(OC)c(OC)cc3CC21` (centres undefined), the TGI in the assay with MDA-MB-435, in the assay on NCI/ADR-RES ovarian, with 786-0 renal, in the assay with DU-145 prostate, with K-562 leukemia and in the assay on RXF 393 renal was above 100 µM each time. In the assay on T-47D breast, the TGI is above 100 µM.
Consider `OC1(c2ccccc2)CSC2=Nc3ccccc3C3CCN1N23` (centres undefined), for which the TGI in the assay on SK-MEL-2 melanoma was 32.1 µM; in the assay on HOP-62 NSCLC it was 50 µM; in the assay on MDA-MB-435 it was 34 µM; in the assay on NCI/ADR-RES ovarian it was 63.9 µM; in the assay on 786-0 renal, 34.4 µM; with DU-145 prostate, 29.7 µM. Further, the TGI in the assay with K-562 leukemia was above 100 µM; with RXF 393 renal, 36.9 µM; with OVCAR-3 ovarian, above 100 µM; in the assay with T-47D breast it was 47.5 µM.
As to `COc1ccc(N=C2C(=Nc3ccc(OC)cc3)N(c3ccccc3)C(=S)N2N=C=C2Sc3ccccc3N2C)cc1`, the TGI in the assay on SK-MEL-2 melanoma, in the assay on HOP-62 NSCLC, with MDA-MB-435, in the assay with NCI/ADR-RES ovarian, in the assay on 786-0 renal and with DU-145 prostate was above 100 µM in each case. The TGI with K-562 leukemia, in the assay on RXF 393 renal, with OVCAR-3 ovarian and in the assay on T-47D breast was above 100 µM throughout.
For `Cc1cc(O)c(C(C)C)cc1C1(c2cc(C(C)C)c(O)cc2C)OC(=O)c2ccccc21`, the TGI with SK-MEL-2 melanoma was 3.28 µM; in the assay with HOP-62 NSCLC, 8.75 µM; in the assay on MDA-MB-435, 3.01 µM; in the assay with NCI/ADR-RES ovarian, 12 µM; in the assay on 786-0 renal, 5.52 µM; in the assay on DU-145 prostate, 4.41 µM. Moreover, the TGI amounted to 3.25 µM in the assay with K-562 leukemia, 3.02 µM with RXF 393 renal, 4.85 µM in the assay on OVCAR-3 ovarian and 6.44 µM in the assay on T-47D breast.
As to `C/C(=C/CC[C@]1(CO)CC[C@]2(CO)[C@H](CC[C@@H]3[C@@]4(C)CC[C@H](OC5OCC(O)C(O)C5OC5OC(CO)C(O)C(O)C5O)C(C)(C)[C@@H]4CC[C@]32C)[C@H]1O)CO` (some centres undefined), the TGI in the assay on HOP-62 NSCLC, in the assay with MDA-MB-435, with NCI/ADR-RES ovarian, in the assay with 786-0 renal, in the assay with DU-145 prostate and in the assay on K-562 leukemia was above 100 µM in each case. The TGI with RXF 393 renal, in the assay with OVCAR-3 ovarian and with T-47D breast was above 100 µM in each case.
As for `Brc1c(C#CCC2CCCCC2)ccc(C#CCC2CCCCC2)c1Br`, the TGI with SK-MEL-2 melanoma, with MDA-MB-435, with NCI/ADR-RES ovarian, in the assay on 786-0 renal, with DU-145 prostate and in the assay on K-562 leukemia was above 100 µM throughout. Also, the TGI in the assay on RXF 393 renal, in the assay on OVCAR-3 ovarian and in the assay with T-47D breast was above 100 µM throughout.
With `C=CCOC(=O)C1C2OC3(C(C(=O)OC)=C2C(=O)OC)c2ccccc2CCC13` (centres undefined), the TGI with SK-MEL-2 melanoma, with HOP-62 NSCLC, with MDA-MB-435, in the assay on NCI/ADR-RES ovarian, in the assay with 786-0 renal and in the assay on DU-145 prostate was above 10 µM throughout. In addition, the TGI with K-562 leukemia, in the assay with RXF 393 renal, in the assay with OVCAR-3 ovarian and in the assay with T-47D breast was above 10 µM in each case.
Turning to `O=c1onc2c3ccccc3ncn12`, the TGI in the assay with SK-MEL-2 melanoma, with HOP-62 NSCLC, in the assay on MDA-MB-435, with NCI/ADR-RES ovarian, in the assay on 786-0 renal and in the assay with DU-145 prostate was above 100 µM in each case. Also, the TGI with K-562 leukemia, in the assay on RXF 393 renal, with OVCAR-3 ovarian and in the assay with T-47D breast was above 100 µM each time.
With `c1ccc(CSCCc2ccncc2)cc1`, the TGI with SK-MEL-2 melanoma, in the assay on HOP-62 NSCLC, in the assay on MDA-MB-435, in the assay on NCI/ADR-RES ovarian, in the assay on 786-0 renal and in the assay on DU-145 prostate was above 100 µM in each case. The TGI in the assay with K-562 leukemia, with RXF 393 renal, in the assay with OVCAR-3 ovarian and in the assay with T-47D breast was above 100 µM in each case.
Regarding `CC1OC(OC2C(OC(=O)[C@@H]3CC(C)(C)C[C@H]4C5=CC[C@@H]6[C@@]7(C)C[C@H](O)[C@H](OC8OC(CO)C(O)C(O)C8O)[C@@](C)(CO)[C@@H]7[C@H](O)C[C@@]6(C)[C@]5(C)CC[C@@]34C)OCC(O)C2O)C(O)C(O)C1O` (some centres undefined), the TGI with SK-MEL-2 melanoma, in the assay on HOP-62 NSCLC, with MDA-MB-435, in the assay with NCI/ADR-RES ovarian, in the assay with 786-0 renal and with DU-145 prostate was above 7.5 µM throughout. The TGI with K-562 leukemia, in the assay on RXF 393 renal, in the assay with OVCAR-3 ovarian and in the assay on T-47D breast was above 7.5 µM each time.
